Test results published in paper PMC9434621 (ACS Omega, 2022).

How the values were obtained:
bovine erythrocyte CA [1] = target: T1, bovine erythrocyte CA (Bos taurus, UniProt P00921); conditions: test concentration not given; Figure 2
bovine erythrocyte CA [2] = target: T1, bovine erythrocyte CA; test: biochemical
bovine erythrocyte CA [3] = target: T1, bovine erythrocyte CA; conditions: sample 0.5 mM in DMSO, 15 min incubation with enzyme at room temperature

T1 sequence (P00921 whole entry): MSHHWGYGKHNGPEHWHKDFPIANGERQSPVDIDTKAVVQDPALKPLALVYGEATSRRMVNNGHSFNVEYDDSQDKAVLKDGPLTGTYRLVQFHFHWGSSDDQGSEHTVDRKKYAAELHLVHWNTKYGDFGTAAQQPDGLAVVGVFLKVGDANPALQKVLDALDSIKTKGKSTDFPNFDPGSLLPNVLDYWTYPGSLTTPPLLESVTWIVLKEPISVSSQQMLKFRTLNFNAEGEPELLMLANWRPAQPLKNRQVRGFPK

| % inhibition (bovine erythrocyte CA [1]) | IC50 (bovine erythrocyte CA [2]) | enhancement of fluorescence signal after complex formation with CA (bovine erythrocyte CA [3]) | Compound |
| --- | --- | --- | --- |
| 58.4% |  |  | CCCC1=NOC(=O)/C1=C/c1ccc(OC)cc1O [AC1, (E)-4-(2-Hydroxy-4-methoxybenzylidene)-3-propylisoxazol-5(4H)-one] |
| 79.5% | 112 ± 1.6 µM | significant fluorescence enhancement | CCCC1=NOC(=O)/C1=C/c1cccs1 [AC2, (E)-3-Propyl-4-(thiophen-2-ylmethylene) Isoxazol-5(4H)-one] |
| 50.5% |  |  | CCCC1=NOC(=O)/C1=C/c1ccc(O)cc1 [AC4, (E)-4-(4-Hydroxybenzylidene)-3-propylisoxazol-5(4H)-one] |
| 68.7% |  | significant fluorescence enhancement | (E)-4-(2-Methoxybenzylidene)-3-propylisoxazol-5(4H)-one [AC3] |
